Reference: patent publication US20240190880A1 (THE REGENTS OF THE UNIVERSITY OF MICHIGAN, priority 2021, published 2024)

Biological target: T1, ER (Homo sapiens, UniProt P03372)
T1 construct: host or cells: T47D and MCF7 human breast cancer cells
T1 sequence (P03372 1-595): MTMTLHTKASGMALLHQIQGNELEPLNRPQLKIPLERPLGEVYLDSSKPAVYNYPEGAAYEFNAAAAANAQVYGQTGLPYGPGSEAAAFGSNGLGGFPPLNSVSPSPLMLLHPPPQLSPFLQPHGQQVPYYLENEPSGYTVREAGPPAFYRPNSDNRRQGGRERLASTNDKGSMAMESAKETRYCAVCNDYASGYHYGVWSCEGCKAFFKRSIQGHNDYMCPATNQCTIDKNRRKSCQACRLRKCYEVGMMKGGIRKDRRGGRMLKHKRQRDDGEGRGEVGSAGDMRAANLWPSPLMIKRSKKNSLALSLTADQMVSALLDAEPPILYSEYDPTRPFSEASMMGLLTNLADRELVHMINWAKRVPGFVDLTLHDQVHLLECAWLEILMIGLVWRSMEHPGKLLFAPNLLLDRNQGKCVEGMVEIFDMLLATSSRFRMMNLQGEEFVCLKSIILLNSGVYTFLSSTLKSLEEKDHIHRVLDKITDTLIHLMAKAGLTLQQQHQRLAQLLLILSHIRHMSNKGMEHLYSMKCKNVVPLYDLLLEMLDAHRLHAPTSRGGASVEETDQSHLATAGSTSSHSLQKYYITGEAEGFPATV
Experiment: ER degradation activity, in-cell western blot analysis in T47D cells
Assay type: cell-based
Details: compounds 16 hours, Table A does not say whether T47D or MCF7, read-out: Potency (DC50)
How it was run: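 In-cell western, T47D; compounds 16 h, 0.5% DMSO final; anti-rabbit-680/anti-mouse-800 secondaries, 1 h RT, dark; read on CLX imager. ER % vs untreated/DMSO wells (100%).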

Compared with `O=C1CCC(N2Cc3cc4c(cc3C2=O)C(=O)N(CC2CN(CC3CCN(c5ccc([C@@H]6c7ccc(O)cc7CC[C@@H]6c6ccccc6)cc5)CC3)C2)C4)C(=O)N1` (stereo partly drawn) [E 508, 2-(2,6-dioxopiperidin-3-yl)-6-((1-((1-(4-((1R,2S)-6-hydroxy-2-phenyl-1,2,3,4-tetrahydronaphthalen-1-yl)phenyl)piperidin-4-yl)methyl)azetidin-3-yl)methyl)-2,3,5,6-tetrahydropyrrolo[3,4-f]isoindole-1,7-dione], `O=C1CCC(N2C(=O)c3cc4c(cc3C2=O)CN(CC2COC3(CCN(c5ccc([C@@H]6c7ccc(O)cc7CC[C@@H]6c6ccccc6)cc5)CC3)C2)C4)C(=O)N1` (stereo partly drawn) [E 515, 2-(2,6-dioxopiperidin-3-yl)-6-((8-(4-((1R,2S)-6-hydroxy-2-phenyl-1,2,3,4-tetrahydronaphthalen-1-yl)phenyl)-1-oxa-8-azaspiro[4.5]decan-3-yl)methyl)-6,7-dihydropyrrolo[3,4-f]isoindole-1,3(2H,5H)-dione] is lower in DC50: > 100 nM for the first, 10 to 100 nM for the second.

`Cn1cc(-c2ccc3c(c2)CC[C@H](c2ccccc2)[C@@H]3c2ccc(N3CCC4(CCN(C(=O)CN5Cc6cc7c(cc6C5)C(=O)N(C5CCC(=O)NC5=O)C7=O)CC4)CC3)cc2)cn1` (stereo partly drawn) [E 509, 2-(2,6-dioxopiperidin-3-yl)-6-(2-(9-(4-((1R,2S)-6-(1-methyl-1H-pyrazol-4-yl)-2-phenyl-1,2,3,4-tetrahydronaphthalen-1-yl)phenyl)-3,9-diazaspiro[5.5]undecan-3-yl)-2-oxoethyl)-6,7-dihydropyrrolo[3,4-f]isoindole-1,3(2H,5H)-dione] and `O=C1CCC(N2C(=O)c3cc4c(cc3C2=O)CN(CC(=O)N2CCC3(CC2)CCN(c2ccc([C@@H]5c6ccc(-c7cn[nH]c7)cc6CC[C@@H]5c5ccccc5)cc2)CC3)C4)C(=O)N1` (stereo partly drawn) [E 510, 2-(2,6-dioxopiperidin-3-yl)-6-(2-oxo-2-(9-(4-((1R,2S)-2-phenyl-6-(1H-pyrazol-4-yl)-1,2,3,4-tetrahydronaphthalen-1-yl)phenyl)-3,9-diazaspiro[5.5]undecan-3-yl)ethyl)-6,7-dihydropyrrolo[3,4-f]isoindole-1,3(2H,5H)-dione] cannot be ordered by DC50: > 100 nM for the first, > 100 nM for the second.

First: C[C@@H]1Cc2c([nH]c3ccccc23)[C@@H](c2cnc(N3CCC4(CC3)CC(CN3Cc5cc6c(cc5C3)C(=O)N([C@H]3CCC(=O)NC3=O)C6=O)C4)nc2)N1CC(F)(F)CO [E 512, 6-((7-(5-((1R,3R)-2-(2,2-difluoro-3-hydroxypropyl)-3-methyl-2,3,4,9-tetrahydro-1H-pyrido[3,4-b]indol-1-yl)pyrimidin-2-yl)-7-azaspiro[3.5]nonan-2-yl)methyl)-2-((S)-2,6-dioxopiperidin-3-yl)-6,7-dihydropyrrolo[3,4-f]isoindole-1,3(2H,5H)-dione]
Second: C[C@@H]1Cc2c([nH]c3ccccc23)[C@@H](c2cnc(N3CC4(CCC(CN5Cc6cc7c(cc6C5)C(=O)N(C5CCC(=O)NC5=O)C7=O)CC4)C3)nc2)N1CC(F)(F)CO (stereo partly drawn) [E 513, 6-((2-(5-((1R,3R)-2-(2,2-difluoro-3-hydroxypropyl)-3-methyl-2,3,4,9-tetrahydro-1H-pyrido[3,4-b]indol-1-yl)pyrimidin-2-yl)-2-azaspiro[3.5]nonan-7-yl)methyl)-2-(2,6-dioxopiperidin-3-yl)-6,7-dihydropyrrolo[3,4-f]isoindole-1,3(2H,5H)-dione]
The DC50 of the first is higher: > 100 nM for the first, 10 to 100 nM for the second.

For `COc1cc(N2CCC3(CCN(C(=O)CN4Cc5cc6c(cc5C4)C(=O)N(C4CCC(=O)NC4=O)C6=O)CC3)CC2)ccc1[C@@H]1c2[nH]c3ccccc3c2C[C@@H](C)N1CC(C)(C)F` (stereo partly drawn) [E 514, 2-(2,6-dioxopiperidin-3-yl)-6-(2-(9-(4-((1R,3R)-2-(2-fluoro-2-methylpropyl)-3-methyl-2,3,4,9-tetrahydro-1H-pyrido[3,4-b]indol-1-yl)-3-methoxyphenyl)-3,9-diazaspiro[5.5]undecan-3-yl)-2-oxoethyl)-6,7-dihydropyrrolo[3,4-f]isoindole-1,3(2H,5H)-dione], the DC50 was 10 to 100 nM.
